First: COc1ccc([N+](=O)[O-])c(C(=O)O)c1OC
Second: COc1ccc([N+](=O)[O-])c2c1CC(C)(C)O2
The melting point of the first is higher: 187 to 189 °C for the first, 135 to 136 °C for the second.

First: CCOCOC1=C(c2cc(C)ccc2C)C(=O)NC12CCN(OC)CC2
Second: Cc1ccc(C)c(-c2nn(C(C)(C)C(=O)N(C)C)cc2C)c1
The melting point of the first is higher: 150 to 152 °C for the first, 93 to 95 °C for the second.

First: O=C(c1ccccc1C(c1ccc(O)cc1)c1ccc(O)cc1)N1CCN(c2ccccc2Cl)CC1
Second: Clc1ccc(N2CCN(Cc3nc4ccccc4[nH]3)CC2)cc1
The melting point of the first is higher: over 300 °C for the first, 212 to 213 °C for the second.

Compared with `ClCc1c(Cl)c(Cl)c(Cl)c(Cl)c1CCl`, `Cc1ccc(-c2nc(Cl)nc(Cl)c2-c2ccc(Cl)cc2)cc1` is higher in melting point: 83 to 84 °C for the first, 223 to 225 °C for the second.

First: COC(=O)C(=CNc1ncnc2ccc(NC(=O)CC(C)(C)C)cc12)C(=O)OC
Second: Cc1cc(C)cc(NC(=O)Cc2ccc(OC(C)C(=O)O)cc2)c1 (stereo unspecified)
The melting point of the first is higher: 196 to 198 °C for the first, 183 to 187 °C for the second.

Compared with `O=C(O)C1=Cc2cc(Cl)cc(COCc3ccccc3)c2OC1C(F)(F)F` (stereo unspecified), `O=c1c2c(Cl)cc(Cl)cc2n(Cc2ccccc2)c(=O)n1Cc1ccccc1F` is lower in melting point: 134 to 135 °C for the first, 126 to 130 °C for the second.

First: CC(=O)OC(C(C(=O)C(C)(C)C)n1cncn1)C(Cl)(Cl)Cl (stereo unspecified)
Second: CCS(=O)(=O)C1(C(O)(Cn2cncn2)c2ccc(Cl)cc2)CC1 (stereo unspecified)
The melting point of the first is lower: 115 to 119 °C for the first, 215 °C for the second.

First: COC(=O)Cc1cccc2c1Sc1ccccc1S2
Second: O=C1CSc2c(ccc3ccccc23)N1
The melting point of the first is lower: 124 to 125 °C for the first, 211 to 212 °C for the second.

First: CNC(=O)c1ccc(C)c(-n2c(C)cc(OCc3ccc(F)cc3CNC(=O)Nc3cc(C(C)(C)C)nn3-c3ccc(O)c(Cl)c3)c(Cl)c2=O)c1
Second: CCOC(=O)CCc1ccc(OCc2ccc(Cn3nc(C(C)(C)C)cc3C(C)(C)C)cc2)cc1F
The melting point of the first is higher: 177 to 180 °C for the first, 73 to 74 °C for the second.

Compared with `COC(=O)CCCCN(CCc1cc(-c2ccc(F)cc2F)ccc1OCc1ccc(-c2ccc(C(F)(F)F)cc2)cc1)Cc1ccc(C(=O)OC)cc1`, `COC(=O)[C@H](Cc1ccc(-c2c(C)cc(C(F)(F)F)n(C)c2=O)cc1)NC(=O)c1c(Cl)cccc1Cl` is lower in melting point: over 240 °C for the first, 170 to 173 °C for the second.

Compared with `CCOC(=O)CC(=O)NNc1ncc(-c2ccccc2)nc1CC(C)C`, `CCOc1nn(Cc2ccc(OCc3nc(-c4ccccc4)oc3C)nc2)cc1CC(=O)O` is higher in melting point: 116 to 118 °C for the first, 126 to 127 °C for the second.

Compared with `NC1=NC2CCCc3cccc(c32)N1` (stereo unspecified), `Cc1[nH]c(=O)cc2c1CC(c1ccncc1)CC2` (stereo unspecified) is higher in melting point: 230 to 232 °C for the first, over 300 °C for the second.

First: CC(=O)OC1CCC2(C)C(CCC3C2C(=O)CC2(C)C3CCC23OCCO3)C1 (stereo unspecified)
Second: CC(C)CCCC(C)C1CCC2C3CC=C4CCCC(O)C4(C)C3CCC12C (stereo unspecified)
The melting point of the first is higher: 116 to 123 °C for the first, 102 to 103 °C for the second.

Compared with `O=C(NCCSCc1cccc(Br)c1)c1c(Br)cccc1Br`, `CCn1cc(C(=O)NCCc2ccncc2)c(=O)c2cc(F)cc(C)c21` is higher in melting point: 70 to 72 °C for the first, 243 to 245 °C for the second.

Compared with `CC(=O)NCc1ccc(CN2CCN(c3ccc(F)cc3NC(C)=O)CC2)cc1`, `COc1nc(C)c(C(C)=O)cc1NC(=S)N1CCN(c2cccc(O)c2)CC1` is lower in melting point: 148 to 150 °C for the first, 114 to 115 °C for the second.

First: CCOC(=O)C1CC(=C2CCN(c3ccccc3)C2=O)c2ccc(Cl)cc2N1 (stereo unspecified)
Second: Cc1ccc(S(=O)(=O)Cc2c(C#N)nn(-c3ccccc3)c2O)cc1
The melting point of the first is lower: 160 to 162 °C for the first, 214 °C for the second.

Compared with `CC(=O)OCc1ccc(N(c2ccccc2)c2ccc(C=CC=O)cc2)cc1`, `Clc1ccc(C=NC(c2ccccc2)c2ccccc2)cc1` is lower in melting point: 112 to 115 °C for the first, 83 to 84 °C for the second.

First: CN1CCN(Cc2cc3c(cc2F)-c2[nH]nc(-c4ccsc4)c2C3)CC1
Second: O=C(Nc1cccc2c1C(=O)c1c-2n[nH]c1-c1ccc(N2CCC(N3CCOCC3)CC2)cc1)NN1CCOCC1
The melting point of the first is lower: 115 to 118 °C for the first, 249 °C for the second.

First: CC(C)c1cc2c(=O)n3cc(C#N)ccc3nc2s1
Second: CC(C)C(C)(C#N)N1C(=O)c2ccc3ccn(C)c3c2C1=O (stereo unspecified)
The melting point of the first is higher: 225 to 226 °C for the first, 134 to 138 °C for the second.

Compared with `Cc1cc2c(C(=O)C3=C(O)C4CCC(C4)C3=O)ccc(S(C)(=O)=O)c2o1` (stereo unspecified), `O=C(O)c1cn(C2CC2)c2c(C(F)(F)F)c(N3CCC(c4ccccn4)C3)c(F)cc2c1=O` (stereo unspecified) is lower in melting point: 258 to 259 °C for the first, 210 to 212 °C for the second.

First: Cc1c(-c2ccc(C#N)cc2)c(C#N)c(C2CC2)n1Cc1cnc(Cl)c(COC(=O)CCC(=O)O)c1
Second: COc1cc(C#N)ccc1-c1cc(-c2ccc(C#N)cc2)on1
The melting point of the first is lower: 188 to 189 °C for the first, 243 to 244 °C for the second.

First: COc1ccccc1Sc1c(O)nc(C)[nH]c1=O
Second: COc1ccccc1Oc1c(Cl)nc(N)nc1Cl
The melting point of the first is higher: 290 °C for the first, 190 °C for the second.

First: Cc1sc(S(N)(=O)=S)cc1C(C)O (stereo unspecified)
Second: NS(=O)(=O)c1nc2ccc(OC(=O)C=Cc3ccccc3)cc2s1
The melting point of the first is lower: 100 to 102 °C for the first, 235 °C for the second.

First: CC(C)(C)OC(=O)Nc1cc2cc(OCc3ccccc3)ccc2cc1OCc1ccccc1
Second: O=C(NNc1nc2ccccc2n2cccc12)c1cc2ccccc2[nH]1
The melting point of the first is lower: 179 to 182 °C for the first, 186 °C for the second.

Compared with `c1ccc2c(c1)-c1sccc1C2Cc1ccncc1` (stereo unspecified), `COc1cnccc1-c1csc(Cc2ccccc2)n1` is lower in melting point: 91 to 93 °C for the first, 76 to 77 °C for the second.

First: N#Cc1c(SC(F)(F)F)c(N)n(-c2ccc(C(F)(F)F)cc2)c1Br
Second: Cc1cc(-c2ccc(C(F)(F)F)cc2)nc2c(C(=O)Nc3cccc(S(N)(=O)=O)c3)cnn12
The melting point of the first is lower: 152 °C for the first, 270 to 272 °C for the second.

First: O=C(C=C1CCCN1)c1ccccc1
Second: O=[N+]([O-])c1cccnc1Nc1ccccc1
The melting point of the first is higher: 115 to 116 °C for the first, 66 to 68 °C for the second.

First: COc1nnc(C)c(-c2ccc(Cl)nc2)c1-c1c(F)cc(F)cc1F
Second: COc1cc(Cl)cnc1OCC#Cc1ccc(Cl)cc1
The melting point of the first is higher: 123 to 124 °C for the first, 109 to 110 °C for the second.

First: CNC(=O)N/N=C1/C(=O)N(CCN(C(C)C)C(C)C)c2ccc(C)cc21
Second: COC(=O)N1CCN(C(=O)c2cc(S(=O)(=O)NN(C)C)ccc2N)CC1
The melting point of the first is lower: 158 °C for the first, 169 to 171 °C for the second.

First: COc1ccccc1Oc1c(N)nc(N2CCOCC2)nc1OCCO
Second: Cc1cccc(Nc2cc(Cl)nc(SCC(=O)NN3CCOCC3)n2)c1C
The melting point of the first is higher: 136 to 138 °C for the first, 106 to 108 °C for the second.

First: Cc1cccc(-c2nc(C(C)C)[nH]c2-c2ccc(F)c(-c3cnn(C)c3)c2)n1
Second: CNc1nc(-c2cccnc2)nc(NC)c1C(=O)Nc1ccc(C)c(C)c1
The melting point of the first is lower: 77 to 97 °C for the first, 285 to 286 °C for the second.

First: CCOC(=O)Cc1c(C(=O)OCC)c(C)c(C(=O)c2ccc(Cl)cc2)n1C
Second: Cn1c(=O)cc(C(N)=S)c2cc(C(=O)c3ccc(Cl)cc3)ccc21
The melting point of the first is lower: 91 to 93 °C for the first, 210 °C for the second.

First: O=c1[nH]c2ccccc2cc1-c1csc(-c2cccnc2)n1
Second: CN(c1ccc2ccccc2c1)c1nc(=O)c2cccnc2s1
The melting point of the first is lower: 197 to 198 °C for the first, 230 to 232 °C for the second.

Compared with `O=C1c2cccnc2N(N2CCOCC2)C2=NCCN12`, `O=C1C2=NCCCN2c2cc(Cl)ccc21` is lower in melting point: 225 to 226 °C for the first, 164 to 167 °C for the second.

First: COCc1ccn2nc(S(=O)(=O)Cl)nc2n1
Second: COc1nc(Cc2ccccc2NS(=O)(=O)C(F)(F)F)nc(OC)n1
The melting point of the first is higher: 125 °C for the first, 101 to 108 °C for the second.

First: CCCCCCCCCCCCCCCCS(N)(=O)=O
Second: CCCCCCCCCCCCCCCCSCC(CN)Oc1ccon1 (stereo unspecified)
The melting point of the first is higher: 98 to 100 °C for the first, 73 to 74 °C for the second.

First: CC(Oc1cccc2ccoc12)C(N)=NO (stereo unspecified)
Second: Oc1cccc2c(Oc3ccccc3)cccc12
The melting point of the first is higher: 92 to 94 °C for the first, 82 to 83 °C for the second.

First: CC[C@H]1CN(c2c(F)cc3c(=O)c(C(=O)O)cn([C@@H]4C[C@@H]4F)c3c2OC)C[C@H]1NC
Second: Cc1cn([C@@H]2C[C@H](O)[C@@H](O)[C@H]2O)c(=O)[nH]c1=O (racemic)
The melting point of the first is lower: 143 to 145 °C for the first, 201 to 202 °C for the second.

First: O=C(O)c1cc([N+](=O)[O-])cn1C1CCCC1
Second: CCOC(=O)C1=C(C)NC(OC)=NC1c1cccc([N+](=O)[O-])c1 (stereo unspecified)
The melting point of the first is higher: 195 to 198 °C for the first, 101 to 103 °C for the second.

First: CCc1ccc2[nH]c(C(=O)OC)cc2c1
Second: Cn1ccc2ccc(CO)cc21
The melting point of the first is higher: 112 °C for the first, 47 to 49 °C for the second.

First: CC#CCOc1ccc(OCC(=O)NO)cc1
Second: C=C(Cl)CNC(=S)SCc1ccccc1
The melting point of the first is higher: 100 to 105 °C for the first, 46 to 48 °C for the second.

First: CCCCCCCCCCCCCCC(=O)C(=O)NC(C=CC(=O)OC)CCCC (stereo unspecified)
Second: CCCCCCCCCCCCc1ccc(NC(C)=O)c([N+](=O)[O-])c1
The melting point of the first is lower: 48 to 50 °C for the first, 71 to 73 °C for the second.

Compared with `CCCC(=O)c1cc2c(cc1C)NC(=O)C2(O)C(=O)OCC` (stereo unspecified), `CCCC[C@]1(CC)CS(=O)(=O)c2cc(OC)c(OC)cc2[C@@H](c2ccccc2)N1O` is lower in melting point: 180 to 181 °C for the first, 174 to 175 °C for the second.

First: COc1cc(NC(=O)CN2CCOCC2)c(Cl)cc1Cn1nc(-c2ccc(C(F)(F)F)cc2)oc1=O
Second: COc1cc2c(cc1Nc1ncc(Cl)c(Nc3ccccc3S(=O)(=O)N(C)C)n1)CCN(CCOC(=O)CN)CC2
The melting point of the first is higher: 178 to 179 °C for the first, 77 to 79 °C for the second.

First: COc1ccc(C2=CC(=Nc3c(C)cc(C)cc3C)N(C)CN2)cc1OC
Second: COc1cc2c(cc1OC)C(c1ccccc1)N(C(=O)NCCN1CCCCC1)CC2 (stereo unspecified)
The melting point of the first is higher: 165 to 166 °C for the first, 101 to 102 °C for the second.

First: CN(c1ccccc1)c1ccc(-c2nc(C#N)c(C#N)nc2C#N)cc1
Second: COc1cccc(CSc2nnc(-c3ccc4c(c3)CCO4)o2)c1
The melting point of the first is higher: 187 °C for the first, 91 to 93 °C for the second.

Compared with `Nc1c(CCO)cccc1C(O)c1ccc(Cl)cc1` (stereo unspecified), `OC(c1ccccc1)(c1cccc(C(F)(F)F)c1)c1ncc[nH]1` (stereo unspecified) is higher in melting point: 132 to 134 °C for the first, 152 °C for the second.

First: CC1CC(=O)N(c2ccncc2)C1=O (stereo unspecified)
Second: CC(=O)[C@H]1CC=C(C)C(=O)C1
The melting point of the first is higher: 119 to 120 °C for the first, 35 °C for the second.

Compared with `CC(C)(C)N1C(=O)c2cc([N+](=O)[O-])cnc2C1=O`, `CN(C)Cc1ccc(CSCCNc2ncc(Cc3ccn(C)c(=O)c3)c(=O)[nH]2)o1` is lower in melting point: 170 to 173 °C for the first, 129 to 132 °C for the second.

First: CC1=C(CC(=O)O)CN(C)N1
Second: O=C(OCC1OC(n2ccc(-n3cncn3)nc2=O)C(OC(=O)c2ccccc2)C1OC(=O)c1ccccc1)c1ccccc1 (stereo unspecified)
The melting point of the first is higher: 191 to 192 °C for the first, 83 to 84 °C for the second.

Work on `O=S(=O)(Oc1ccc(S(=O)(=O)c2ccc(OS(=O)(=O)c3ccccc3)cc2)cc1)c1ccccc1` yielded a melting point of 133 to 134 °C.
